In brackets after ≈: the same amount, converted by molar mass.
Experiments:
MDR1 = experiment: Apparent permeability in MDCK cells harboring MDR1; assay type: ADME, cell-based, Canis lupus familiaris; conditions: dog
[1] = target: Ribosomal protein S6 kinase alpha-4 (Homo sapiens) (UniProt O75676); experiment: Inhibition of MSK2 domain1 conserved Lys2 (DIKLENILLDSNGHVVLTDFGLSK) in human PBMC at 1 uM
[2] = target: Tyrosine-protein kinase ABL2 (Homo sapiens) (UniProt P42684); experiment: Inhibition of ARG labeling at […] (LMTGDTYTAHAGAKFPIK) in human PBMC at 1 uM
Chain of Tyrosine-protein kinase ABL2 (Homo sapiens) (P42684 whole entry): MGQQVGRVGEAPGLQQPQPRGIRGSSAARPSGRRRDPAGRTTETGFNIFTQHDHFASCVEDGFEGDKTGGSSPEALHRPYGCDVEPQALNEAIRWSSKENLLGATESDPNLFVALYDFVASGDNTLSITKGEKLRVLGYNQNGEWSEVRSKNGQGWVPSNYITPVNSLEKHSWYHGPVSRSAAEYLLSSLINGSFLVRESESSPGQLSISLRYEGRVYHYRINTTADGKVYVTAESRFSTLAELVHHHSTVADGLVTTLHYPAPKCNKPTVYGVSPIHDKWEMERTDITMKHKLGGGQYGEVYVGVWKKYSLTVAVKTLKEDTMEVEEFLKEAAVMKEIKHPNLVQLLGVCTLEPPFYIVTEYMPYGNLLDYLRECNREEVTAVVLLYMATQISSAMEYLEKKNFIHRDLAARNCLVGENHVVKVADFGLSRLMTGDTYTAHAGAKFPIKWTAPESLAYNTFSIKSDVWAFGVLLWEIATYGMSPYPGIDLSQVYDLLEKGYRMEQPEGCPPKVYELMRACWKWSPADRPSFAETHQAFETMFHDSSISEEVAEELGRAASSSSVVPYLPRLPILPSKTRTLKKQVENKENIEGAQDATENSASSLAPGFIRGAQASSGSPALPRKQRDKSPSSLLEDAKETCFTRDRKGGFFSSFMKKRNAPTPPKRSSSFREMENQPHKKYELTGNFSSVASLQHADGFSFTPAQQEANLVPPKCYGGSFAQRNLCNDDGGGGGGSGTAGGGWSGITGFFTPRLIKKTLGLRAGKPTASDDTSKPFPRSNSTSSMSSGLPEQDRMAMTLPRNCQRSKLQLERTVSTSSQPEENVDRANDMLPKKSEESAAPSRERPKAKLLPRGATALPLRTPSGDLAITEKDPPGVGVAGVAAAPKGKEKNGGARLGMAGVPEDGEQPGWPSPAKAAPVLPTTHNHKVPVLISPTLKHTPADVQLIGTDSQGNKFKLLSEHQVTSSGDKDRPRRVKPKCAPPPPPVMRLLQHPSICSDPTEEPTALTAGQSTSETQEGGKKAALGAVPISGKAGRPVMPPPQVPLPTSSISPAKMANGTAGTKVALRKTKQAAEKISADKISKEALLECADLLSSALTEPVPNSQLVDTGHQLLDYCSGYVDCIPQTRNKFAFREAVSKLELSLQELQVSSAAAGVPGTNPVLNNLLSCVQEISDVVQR

[3] = target: Tyrosine-protein kinase Yes (Homo sapiens) (UniProt P07947); experiment: Inhibition of YES activation Loop (QGAKFPIKWTAPEAALYGR) in human PBMC at 0.1 uM
Chain of Tyrosine-protein kinase Yes (Homo sapiens) (P07947 2-543 limits assumed): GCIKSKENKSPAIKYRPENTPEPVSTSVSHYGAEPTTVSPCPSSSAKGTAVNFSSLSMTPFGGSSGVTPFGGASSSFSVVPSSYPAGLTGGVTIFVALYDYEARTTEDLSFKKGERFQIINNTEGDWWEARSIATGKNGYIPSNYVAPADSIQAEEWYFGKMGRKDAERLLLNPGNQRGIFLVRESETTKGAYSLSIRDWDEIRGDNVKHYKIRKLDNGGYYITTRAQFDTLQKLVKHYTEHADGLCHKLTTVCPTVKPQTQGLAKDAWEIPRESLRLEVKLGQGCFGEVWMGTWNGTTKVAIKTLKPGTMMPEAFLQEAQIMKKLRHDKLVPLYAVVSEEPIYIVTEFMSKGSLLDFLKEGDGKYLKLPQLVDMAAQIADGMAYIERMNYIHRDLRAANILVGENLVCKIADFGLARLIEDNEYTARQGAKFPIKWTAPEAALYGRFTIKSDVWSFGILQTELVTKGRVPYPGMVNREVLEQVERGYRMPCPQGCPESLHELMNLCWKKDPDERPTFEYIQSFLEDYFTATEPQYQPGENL

[4] = target: Serine/threonine-protein kinase Chk2 (Homo sapiens) (UniProt O96017); experiment: Inhibition of CHK2 labeling at conserved Lys1 (VAIKIISK) in human PBMC at 1 uM
Chain of Serine/threonine-protein kinase Chk2 (Homo sapiens) (O96017 whole entry): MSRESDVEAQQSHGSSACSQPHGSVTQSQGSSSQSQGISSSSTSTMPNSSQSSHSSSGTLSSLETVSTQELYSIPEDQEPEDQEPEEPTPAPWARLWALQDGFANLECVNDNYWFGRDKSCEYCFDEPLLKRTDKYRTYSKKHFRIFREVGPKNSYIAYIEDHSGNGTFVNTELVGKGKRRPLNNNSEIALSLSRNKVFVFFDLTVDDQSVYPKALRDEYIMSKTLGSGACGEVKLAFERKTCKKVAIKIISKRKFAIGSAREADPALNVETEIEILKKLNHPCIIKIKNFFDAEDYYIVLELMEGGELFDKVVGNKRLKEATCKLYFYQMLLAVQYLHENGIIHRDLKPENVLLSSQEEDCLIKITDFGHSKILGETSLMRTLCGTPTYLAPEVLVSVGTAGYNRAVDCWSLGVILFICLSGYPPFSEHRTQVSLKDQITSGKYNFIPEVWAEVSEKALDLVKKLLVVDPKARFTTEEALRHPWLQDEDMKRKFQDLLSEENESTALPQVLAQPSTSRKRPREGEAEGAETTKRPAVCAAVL

[5] = target: T1, Interleukin-1 receptor-associated kinase 4 (Homo sapiens) (UniProt Q9NWZ3); experiment: Inhibition of IRAK4 conserved Lys2 (DIKSANILLDEAFTAK) in human PBMC at 0.1 uM
T1 sequence (whole entry): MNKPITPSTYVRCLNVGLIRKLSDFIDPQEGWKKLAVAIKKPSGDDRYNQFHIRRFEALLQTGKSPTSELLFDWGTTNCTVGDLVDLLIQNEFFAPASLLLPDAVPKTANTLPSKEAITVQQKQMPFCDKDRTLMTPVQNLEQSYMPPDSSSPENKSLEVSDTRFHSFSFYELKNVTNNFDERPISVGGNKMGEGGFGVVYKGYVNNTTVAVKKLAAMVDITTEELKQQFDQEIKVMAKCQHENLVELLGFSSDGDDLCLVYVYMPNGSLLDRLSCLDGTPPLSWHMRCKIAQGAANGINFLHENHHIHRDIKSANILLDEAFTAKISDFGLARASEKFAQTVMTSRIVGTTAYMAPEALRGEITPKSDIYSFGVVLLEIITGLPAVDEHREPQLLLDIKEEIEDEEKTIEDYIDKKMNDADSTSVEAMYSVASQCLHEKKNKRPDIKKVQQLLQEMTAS

[6] = target: Serine/threonine-protein kinase 10 (Homo sapiens) (UniProt O94804); experiment: Inhibition of LOK conserved Lys2 (DLKAGNVLMTLEGDIR) in human PBMC at 1 uM; conditions: pooled result: one value given for 6 cell lines, strains, targets or settings
[7] = target: Serine/threonine-protein kinase 24 (Homo sapiens) (UniProt Q9Y6E0); experiment: Inhibition of MST3 conserved Lys2 (DIKAANVLLSEHGEVK) in human PBMC at 1 uM
Chain of Serine/threonine-protein kinase 24 (Homo sapiens) (Q9Y6E0 whole entry, looked up): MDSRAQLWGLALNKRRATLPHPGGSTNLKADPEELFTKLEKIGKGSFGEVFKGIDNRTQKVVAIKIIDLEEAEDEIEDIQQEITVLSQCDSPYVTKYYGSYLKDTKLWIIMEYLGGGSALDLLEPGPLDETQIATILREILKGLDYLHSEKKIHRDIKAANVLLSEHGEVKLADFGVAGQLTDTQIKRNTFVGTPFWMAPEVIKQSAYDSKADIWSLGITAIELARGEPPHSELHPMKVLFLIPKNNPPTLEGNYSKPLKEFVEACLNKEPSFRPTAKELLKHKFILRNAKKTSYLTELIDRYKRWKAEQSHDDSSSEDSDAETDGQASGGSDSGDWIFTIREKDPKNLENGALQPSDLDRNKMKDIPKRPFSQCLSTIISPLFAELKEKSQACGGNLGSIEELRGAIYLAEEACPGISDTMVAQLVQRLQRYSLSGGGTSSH

[8] = target: Dual specificity mitogen-activated protein kinase kinase 1 (Homo sapiens) (UniProt Q02750); experiment: Inhibition of MAP2K1 conserved Lys2 (IMHRDVKPSNILVNSR) in human PBMC at 0.1 uM
[9] = target: Myosin light chain kinase, smooth muscle (Homo sapiens) (UniProt Q15746); experiment: Inhibition of smMLCK conserved Lys1 (VWAGKFFK) in human PBMC at 0.1 uM
Chain of Myosin light chain kinase, smooth muscle (Homo sapiens) (Q15746 whole entry): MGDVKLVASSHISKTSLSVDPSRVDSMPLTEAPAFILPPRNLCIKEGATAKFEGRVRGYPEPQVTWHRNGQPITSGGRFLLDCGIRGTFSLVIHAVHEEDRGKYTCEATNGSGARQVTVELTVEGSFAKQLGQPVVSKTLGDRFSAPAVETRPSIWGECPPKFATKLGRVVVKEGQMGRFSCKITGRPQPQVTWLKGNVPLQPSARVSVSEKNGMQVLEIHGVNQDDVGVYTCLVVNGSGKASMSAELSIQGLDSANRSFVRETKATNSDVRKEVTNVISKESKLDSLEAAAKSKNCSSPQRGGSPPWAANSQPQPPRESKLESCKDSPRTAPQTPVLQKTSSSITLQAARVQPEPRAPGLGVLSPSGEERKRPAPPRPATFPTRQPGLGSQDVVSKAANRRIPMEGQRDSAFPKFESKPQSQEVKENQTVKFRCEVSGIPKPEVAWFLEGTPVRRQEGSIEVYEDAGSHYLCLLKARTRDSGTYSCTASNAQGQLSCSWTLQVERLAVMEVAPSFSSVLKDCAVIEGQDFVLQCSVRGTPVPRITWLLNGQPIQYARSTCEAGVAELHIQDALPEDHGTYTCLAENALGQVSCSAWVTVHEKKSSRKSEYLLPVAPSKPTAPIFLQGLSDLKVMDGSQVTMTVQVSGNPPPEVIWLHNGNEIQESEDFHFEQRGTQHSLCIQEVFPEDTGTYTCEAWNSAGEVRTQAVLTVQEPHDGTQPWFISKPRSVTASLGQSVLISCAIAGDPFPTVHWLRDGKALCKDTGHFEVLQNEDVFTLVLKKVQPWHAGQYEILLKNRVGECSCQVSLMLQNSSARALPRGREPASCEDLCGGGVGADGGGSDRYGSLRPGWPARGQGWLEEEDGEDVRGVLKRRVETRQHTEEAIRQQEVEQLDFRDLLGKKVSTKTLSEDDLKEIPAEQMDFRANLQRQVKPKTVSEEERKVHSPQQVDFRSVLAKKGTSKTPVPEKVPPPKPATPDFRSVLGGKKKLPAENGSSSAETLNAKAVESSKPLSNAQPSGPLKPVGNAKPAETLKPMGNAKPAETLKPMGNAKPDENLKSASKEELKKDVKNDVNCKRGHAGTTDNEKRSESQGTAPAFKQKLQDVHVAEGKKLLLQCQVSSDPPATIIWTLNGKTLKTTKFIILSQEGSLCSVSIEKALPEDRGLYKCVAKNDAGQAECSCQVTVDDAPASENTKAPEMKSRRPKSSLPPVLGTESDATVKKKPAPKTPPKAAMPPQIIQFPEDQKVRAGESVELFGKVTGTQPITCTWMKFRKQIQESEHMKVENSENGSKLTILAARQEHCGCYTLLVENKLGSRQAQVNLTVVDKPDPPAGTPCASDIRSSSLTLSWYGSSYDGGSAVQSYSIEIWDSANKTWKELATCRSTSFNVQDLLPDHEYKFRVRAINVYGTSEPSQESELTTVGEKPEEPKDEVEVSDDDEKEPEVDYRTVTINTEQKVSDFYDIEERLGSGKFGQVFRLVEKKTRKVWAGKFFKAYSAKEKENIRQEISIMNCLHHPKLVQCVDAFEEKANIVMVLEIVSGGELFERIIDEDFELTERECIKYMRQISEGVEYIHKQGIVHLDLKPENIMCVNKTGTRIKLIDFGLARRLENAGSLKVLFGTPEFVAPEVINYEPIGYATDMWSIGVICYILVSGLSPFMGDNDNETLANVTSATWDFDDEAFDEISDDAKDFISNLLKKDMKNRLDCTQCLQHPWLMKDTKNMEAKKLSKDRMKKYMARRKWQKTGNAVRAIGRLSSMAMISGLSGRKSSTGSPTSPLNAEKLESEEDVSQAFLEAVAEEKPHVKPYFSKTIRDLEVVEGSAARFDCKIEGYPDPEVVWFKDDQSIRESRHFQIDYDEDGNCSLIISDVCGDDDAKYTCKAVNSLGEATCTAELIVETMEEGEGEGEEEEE

[10] = target: Mitogen-activated protein kinase 13 (Homo sapiens) (UniProt O15264); experiment: Inhibition of p38d conserved Lys2 (DLKPGNLAVNEDCELK) in human PBMC at 0.1 uM
Chain of Mitogen-activated protein kinase 13 (Homo sapiens) (O15264 whole entry): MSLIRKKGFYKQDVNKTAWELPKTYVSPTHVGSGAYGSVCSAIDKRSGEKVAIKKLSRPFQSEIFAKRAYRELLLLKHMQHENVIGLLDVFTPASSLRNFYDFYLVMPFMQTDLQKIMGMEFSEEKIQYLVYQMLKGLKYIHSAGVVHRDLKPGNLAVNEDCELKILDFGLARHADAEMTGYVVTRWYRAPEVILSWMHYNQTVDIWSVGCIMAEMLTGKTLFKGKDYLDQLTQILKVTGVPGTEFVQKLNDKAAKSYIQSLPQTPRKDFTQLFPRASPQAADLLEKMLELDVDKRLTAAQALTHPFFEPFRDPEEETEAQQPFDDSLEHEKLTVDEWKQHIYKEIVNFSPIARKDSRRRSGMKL

[11] = target: RAC-alpha serine/threonine-protein kinase (Homo sapiens) (UniProt P31749); experiment: Inhibition of AKT1 labeling at ATP binding site (GTFGKVILVK) in human PBMC at 1 uM
[12] = target: T2, Serine/threonine-protein kinase 3 (Homo sapiens) (UniProt Q13188); experiment: Inhibition of MST2 conserved Lys2 (DIKAGNILLNTEGHAK) in human PBMC at 0.1 uM
T2 sequence (whole entry): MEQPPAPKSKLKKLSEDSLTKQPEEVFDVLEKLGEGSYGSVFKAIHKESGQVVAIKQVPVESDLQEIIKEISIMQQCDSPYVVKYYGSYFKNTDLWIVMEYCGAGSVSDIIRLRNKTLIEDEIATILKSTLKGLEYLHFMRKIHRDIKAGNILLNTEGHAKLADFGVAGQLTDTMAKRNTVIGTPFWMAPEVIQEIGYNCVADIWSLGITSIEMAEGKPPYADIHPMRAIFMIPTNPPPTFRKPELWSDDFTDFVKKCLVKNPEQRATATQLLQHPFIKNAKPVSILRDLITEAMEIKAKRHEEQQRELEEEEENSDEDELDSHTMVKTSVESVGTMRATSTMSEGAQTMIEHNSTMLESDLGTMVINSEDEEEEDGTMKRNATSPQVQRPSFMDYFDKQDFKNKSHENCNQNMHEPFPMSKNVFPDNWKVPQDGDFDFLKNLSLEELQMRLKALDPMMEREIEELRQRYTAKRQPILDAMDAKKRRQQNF

[13] = target: Ribosomal protein S6 kinase alpha-2 (Homo sapiens) (UniProt Q15349); experiment: Inhibition of RSK3 domain1 conserved Lys2 (DLKPENILLDEEGHIK) in human PBMC at 0.1 uM
[14] = Aqueous solubility of the compound in pH 7.4; assay type: physicochemical; conditions: aqueous medium
[15] = target: Cyclin-dependent kinase 11B (Homo sapiens) (UniProt P21127); experiment: Inhibition of CDK11 labeling at conserved Lys2 (DLKPANILVMGEGPER) in human PBMC at 1 uM
[16] = target: Tyrosine-protein kinase HCK (Homo sapiens) (UniProt P08631); experiment: Inhibition of HCK activation Loop (EGAKFPIKWTAPEAINFGSFTIK) in human PBMC at 1 uM
[17] = target: Serine/threonine-protein kinase 25 (Homo sapiens) (UniProt O00506); experiment: Inhibition of YSK1 conserved Lys2 (DIKAANVLLSEQGDVK) in human PBMC at 1 uM
[18] = target: Cyclin-dependent kinase 7 (Homo sapiens) (UniProt P50613); experiment: Inhibition of CDK7 labeling at conserved Lys2 (DLKPNNLLLDENGVLK) in human PBMC at 1 uM
[19] = target: Inhibitor of nuclear factor kappa-B kinase subunit beta (Homo sapiens) (UniProt O14920); experiment: Inhibition of IKKb conserved Lys2 (DLKPENIVLQQGEQR) in human PBMC at 0.1 uM
[20] = target: Serine/threonine-protein kinase PLK1 (Homo sapiens) (UniProt P53350); experiment: Inhibition of PLK1 conserved Lys1 (CFEISDADTKEVFAGKIVPK) in human PBMC at 0.1 uM

CC(C)n1cc(-c2cc(-c3ccc(CN4CCOCC4)cc3)cnc2N)nn1
Papp (MDR1): 26.3 ×10⁻⁶ cm/s
inhibition [1]: 10.3%
inhibition [2]: 34.8%
inhibition [3]: -4.4%
inhibition [4]: 9.1%
inhibition [5]: -1.8%
inhibition [6]: 14.5%
inhibition [7]: 7.2%
inhibition [8]: -5.6%
inhibition [9]: 29.6%
inhibition [10]: 26.4%
inhibition [11]: 27.4%
inhibition [12]: 1.3%
inhibition [13]: 11.8%
solubility [14]: 36 µg/mL (≈ 95.1 µM)
inhibition [15]: 1.5%
inhibition [16]: -2.2%
inhibition [17]: 9.9%
inhibition [18]: -5.5%
inhibition [19]: 1.5%
inhibition [20]: 24.7%
